Test results as given in publication PMC8808171, “Nonselective TRPC channel inhibition and suppression of aminoglycoside-induced premature termination codon readthrough by the small molecule AC1903” (The Journal of Biological Chemistry, 2022).

Tests used:
[1] = test system: JEB01 keratinocytes; assay: Measurement of intracellular G418 (gentamicin ELISA) in JEB01 keratinocytes; type: cell-based, human; conditions: 150 μM AC1903 (Fig. 2F)
Description: Figure 2 Effect of AC1903 on PTC readthrough and G418 trafficking.A and B, DMS-114 (A) or TC-71 (B) cells were pretreated with indicated concentrations of AC1903 for 3 h followed by exposure to 400 μg/ml G418. After 3 h medium was replenished and at 24 h cell lysates were prepared and p53 levels were measured. C and E, DMS-114 (C) or JEB01 (E) cells were either left untreated or pretreated with 150 μM AC1903 for 3 h followed by exposure to indicated concentrations of G418 for another 3 h. At 24 h cell lysates were prepared and p53 (C) or Collagen XVII (E) levels were measured. In panels A–C, protein levels were measured by automated capillary electrophoresis Western analysis (using vinculin as loading control). In panel E, protein levels were measured by Western blot (using beta-actin as loading control). […] D, total intracellular levels of G418 were measured in the same lysates as in (C) (n = 5; data normalized to the highest response in each experiment; bars represent mean ± SD). F, total intracellular levels of G418 were measured in the same lysates as in (E) (n = 2; data normalized to the highest response in each experiment; bars represent mean ± SD). ∗ indicates statistically significant difference between samples according to one-way ANOVA (p < 0.05). […]

[2] = target: T1, TRPC3:C3 (Homo sapiens, UniProt Q13507); assay: [Ca2+]i recordings (Fura-2), TRPC3:C3 in HEK T-REx cells; type: cell-based
T1 construct: expressed in transfected cells
T1 sequence (Q13507 whole entry): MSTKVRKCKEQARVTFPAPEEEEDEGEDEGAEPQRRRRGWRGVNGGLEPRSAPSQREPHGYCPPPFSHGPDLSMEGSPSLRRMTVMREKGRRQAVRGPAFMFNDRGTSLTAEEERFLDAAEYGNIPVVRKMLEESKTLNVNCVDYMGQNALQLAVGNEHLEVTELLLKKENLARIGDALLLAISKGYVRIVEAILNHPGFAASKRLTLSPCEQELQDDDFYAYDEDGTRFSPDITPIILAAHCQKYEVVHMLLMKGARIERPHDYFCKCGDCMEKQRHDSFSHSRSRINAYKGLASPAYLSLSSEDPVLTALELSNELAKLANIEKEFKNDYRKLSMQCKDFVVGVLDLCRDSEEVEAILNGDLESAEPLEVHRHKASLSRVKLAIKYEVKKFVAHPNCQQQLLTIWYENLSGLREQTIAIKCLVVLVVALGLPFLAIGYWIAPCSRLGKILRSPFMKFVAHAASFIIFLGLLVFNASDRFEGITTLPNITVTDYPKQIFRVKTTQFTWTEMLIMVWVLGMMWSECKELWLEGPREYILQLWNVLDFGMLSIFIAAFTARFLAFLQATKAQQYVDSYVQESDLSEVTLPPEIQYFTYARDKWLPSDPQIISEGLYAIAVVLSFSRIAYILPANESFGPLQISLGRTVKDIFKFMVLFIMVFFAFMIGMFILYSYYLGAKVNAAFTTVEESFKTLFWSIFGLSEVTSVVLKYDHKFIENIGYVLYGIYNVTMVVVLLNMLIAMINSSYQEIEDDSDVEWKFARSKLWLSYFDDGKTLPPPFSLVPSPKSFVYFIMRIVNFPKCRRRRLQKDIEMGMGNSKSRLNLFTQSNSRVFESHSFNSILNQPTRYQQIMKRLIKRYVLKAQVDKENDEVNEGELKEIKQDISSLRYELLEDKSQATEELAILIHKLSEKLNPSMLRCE
Description: Based on the findings described above, we wondered whether AC1903—which is typically used as a TRPC5 inhibitor at concentrations of 30–100 μM in cellular assays ([29], [56])—might have limited selectivity for TRPC5 channels and whether its effect on intracellular G418 levels and PTC readthrough might be the consequence of inhibition of other or multiple targets. All well-characterized TRPC channel inhibitors reported to date modulate multiple TRP(C) channels ([34], [35], [36]). […] Because limited data for the selectivity of AC1903 are available in the public domain, we decided to profile AC1903 against a selection of calcium-permeable cation channels by intracellular calcium ([Ca^2+]i) recordings using well-characterized cell lines and TRP channel activators ([46], [57], [58]), and the Ca^2+ indicator Fura-2. In these assays, cells (HEK 293, HEK T-REx, or CHO) overexpressing the relevant ion channel protein and loaded with Fura-2 AM (a cell-permeable precursor of Fura-2) were preincubated with various concentrations of AC1903 or vehicle (DMSO) for 30 min. Then, changes in ratiometric fluorescence (from background) were recorded upon addition of the respective ion channel activator. […]

Question: How did the “intracellular G418 levels in cells exposed to AC1903” value [1] turn out when `c1ccc(Cn2c(NCc3ccco3)nc3ccccc32)cc1` [AC1903] was run?
Answer: significantly declined

Question: And the IC50 ([2]; HEK T-REx, activator OAG (100 μM))?
Answer: 5.2 µM

Question: And the Hill slope ([2]; activator OAG)?
Answer: -1.4
